According to ChEMBL document CHEMBL1201862, “PubChem BioAssay data set” (2004):
Calls of active or inactive are those of the source.

Legend:
Beta-galactosidase = Beta-galactosidase (Escherichia coli, UniProt Q8VNN2); assay: PubChem AID 485352; format: functional
[1] = molecular target: T1, Type-1 angiotensin II receptor (Homo sapiens, UniProt P30556); assay: AT1 receptor antagonists, dose response, selectivity assay for APJ receptor antagonist project, cell-based, uHTS hits (AID 463214); format: functional;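 further: antagonist potency against angiotensin II stimulated AT1 response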
T1 sequence (P30556 whole entry): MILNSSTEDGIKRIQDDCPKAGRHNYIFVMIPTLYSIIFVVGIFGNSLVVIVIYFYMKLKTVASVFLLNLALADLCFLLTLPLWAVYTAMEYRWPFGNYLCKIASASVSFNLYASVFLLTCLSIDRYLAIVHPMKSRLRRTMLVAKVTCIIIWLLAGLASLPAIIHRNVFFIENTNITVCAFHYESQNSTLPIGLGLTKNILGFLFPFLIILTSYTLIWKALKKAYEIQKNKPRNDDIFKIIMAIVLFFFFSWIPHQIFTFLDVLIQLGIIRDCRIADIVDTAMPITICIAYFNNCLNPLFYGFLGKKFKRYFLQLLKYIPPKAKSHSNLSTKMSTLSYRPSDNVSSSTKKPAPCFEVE

Cytochrome P450 1A2 = molecular target: T2, Cytochrome P450 1A2 (Homo sapiens, UniProt P05177);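 further: PubChem cytochrome P450 panel assay, CYP1A2 panel member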
T2 sequence (P05177 whole entry): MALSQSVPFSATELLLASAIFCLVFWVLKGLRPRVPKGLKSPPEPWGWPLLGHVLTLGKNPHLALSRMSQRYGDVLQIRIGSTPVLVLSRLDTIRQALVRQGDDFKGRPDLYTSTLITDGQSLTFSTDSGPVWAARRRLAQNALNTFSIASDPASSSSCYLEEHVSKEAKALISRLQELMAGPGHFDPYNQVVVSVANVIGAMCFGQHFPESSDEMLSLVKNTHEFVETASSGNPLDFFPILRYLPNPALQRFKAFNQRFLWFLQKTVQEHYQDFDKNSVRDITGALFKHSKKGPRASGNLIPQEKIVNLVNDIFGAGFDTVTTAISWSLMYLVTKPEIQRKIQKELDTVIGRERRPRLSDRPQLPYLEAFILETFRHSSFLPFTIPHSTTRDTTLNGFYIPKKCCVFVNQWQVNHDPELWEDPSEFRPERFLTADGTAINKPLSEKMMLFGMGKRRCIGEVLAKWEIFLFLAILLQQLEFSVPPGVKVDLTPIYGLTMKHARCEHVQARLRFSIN

Cytochrome P450 3A4 = Cytochrome P450 3A4 (Homo sapiens, UniProt P08684);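 further: CYP3A4 tested as one member of a cytochrome P450 panel screen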
Vero [2] = assay: cells; format: functional, cell-based; conditions: Chlorocebus sabaeus
Vero [3] = assay: cells; format: functional; conditions: Chlorocebus sabaeus
Trypsin = Trypsin (Sus scrofa, UniProt P00761); assay: porcine trypsin inhibitors, dose response, selectivity assay for Rce1 protease inhibitor project, biochemical, quenched peptide fluorescence, cherry-pick (AID 488789)
CAAX prenyl protease 2 = molecular target: T3, CAAX prenyl protease 2 (Homo sapiens, UniProt Q9Y256); assay: human Rce1 protease inhibitors, dose response, biochemical, yeast membranes, quenched-peptide fluorescence, cherry-pick (AID 588849)
T3 sequence (Q9Y256 whole entry): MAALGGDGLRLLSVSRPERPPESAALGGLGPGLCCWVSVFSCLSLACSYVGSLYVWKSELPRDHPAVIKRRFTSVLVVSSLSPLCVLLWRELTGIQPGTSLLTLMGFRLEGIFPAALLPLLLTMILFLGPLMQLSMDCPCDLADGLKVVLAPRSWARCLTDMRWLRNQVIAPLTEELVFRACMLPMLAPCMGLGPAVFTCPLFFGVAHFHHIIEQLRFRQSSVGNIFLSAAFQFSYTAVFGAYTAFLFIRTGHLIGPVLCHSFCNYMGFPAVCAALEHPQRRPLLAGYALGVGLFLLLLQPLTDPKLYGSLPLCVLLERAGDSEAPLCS

[4] = molecular target: T4, Heat shock factor protein 1 (Mus musculus, UniProt P38532); assay: HSF1 potentiators in luciferase reporter cells, confirmation, cell-based, NIH3T3, luminescence, dose retest (AID 435004); format: functional;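 further: stress induced by proteasome inhibitor MG132 added 30 min after compound; luciferase reporter driven by HSF1 response element in NIH3T3 cells; actives raise luminescence as potentiators of the MG132 stress response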
T4 sequence (P38532 whole entry): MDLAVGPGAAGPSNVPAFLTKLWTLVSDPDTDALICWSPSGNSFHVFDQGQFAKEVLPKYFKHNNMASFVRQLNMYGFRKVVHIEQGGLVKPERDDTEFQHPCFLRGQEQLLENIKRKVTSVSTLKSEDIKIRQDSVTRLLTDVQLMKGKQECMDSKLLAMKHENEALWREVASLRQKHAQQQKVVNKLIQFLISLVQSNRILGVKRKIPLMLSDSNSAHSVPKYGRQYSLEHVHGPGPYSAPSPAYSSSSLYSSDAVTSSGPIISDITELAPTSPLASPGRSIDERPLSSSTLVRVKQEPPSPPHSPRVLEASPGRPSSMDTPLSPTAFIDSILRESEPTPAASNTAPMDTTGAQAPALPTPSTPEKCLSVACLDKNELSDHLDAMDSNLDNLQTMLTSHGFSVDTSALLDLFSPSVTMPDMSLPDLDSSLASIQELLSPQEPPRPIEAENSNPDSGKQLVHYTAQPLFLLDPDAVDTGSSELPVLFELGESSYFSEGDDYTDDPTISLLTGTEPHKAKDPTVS

Sequence of Cytochrome P450 3A4 (P08684 whole entry): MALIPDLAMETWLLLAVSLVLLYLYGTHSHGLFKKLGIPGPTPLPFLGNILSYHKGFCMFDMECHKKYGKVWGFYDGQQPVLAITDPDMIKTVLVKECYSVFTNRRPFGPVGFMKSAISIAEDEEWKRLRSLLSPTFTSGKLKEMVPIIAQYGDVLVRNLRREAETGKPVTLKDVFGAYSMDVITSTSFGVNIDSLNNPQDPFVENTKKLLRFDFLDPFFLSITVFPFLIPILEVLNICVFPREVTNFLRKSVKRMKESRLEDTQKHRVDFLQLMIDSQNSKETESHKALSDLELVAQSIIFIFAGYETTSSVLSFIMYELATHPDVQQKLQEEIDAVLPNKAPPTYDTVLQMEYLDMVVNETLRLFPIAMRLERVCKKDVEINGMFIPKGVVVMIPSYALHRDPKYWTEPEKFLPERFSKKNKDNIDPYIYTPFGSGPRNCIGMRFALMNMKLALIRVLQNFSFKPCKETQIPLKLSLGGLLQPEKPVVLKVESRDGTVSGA
Sequence of Beta-galactosidase (Q8VNN2 whole entry): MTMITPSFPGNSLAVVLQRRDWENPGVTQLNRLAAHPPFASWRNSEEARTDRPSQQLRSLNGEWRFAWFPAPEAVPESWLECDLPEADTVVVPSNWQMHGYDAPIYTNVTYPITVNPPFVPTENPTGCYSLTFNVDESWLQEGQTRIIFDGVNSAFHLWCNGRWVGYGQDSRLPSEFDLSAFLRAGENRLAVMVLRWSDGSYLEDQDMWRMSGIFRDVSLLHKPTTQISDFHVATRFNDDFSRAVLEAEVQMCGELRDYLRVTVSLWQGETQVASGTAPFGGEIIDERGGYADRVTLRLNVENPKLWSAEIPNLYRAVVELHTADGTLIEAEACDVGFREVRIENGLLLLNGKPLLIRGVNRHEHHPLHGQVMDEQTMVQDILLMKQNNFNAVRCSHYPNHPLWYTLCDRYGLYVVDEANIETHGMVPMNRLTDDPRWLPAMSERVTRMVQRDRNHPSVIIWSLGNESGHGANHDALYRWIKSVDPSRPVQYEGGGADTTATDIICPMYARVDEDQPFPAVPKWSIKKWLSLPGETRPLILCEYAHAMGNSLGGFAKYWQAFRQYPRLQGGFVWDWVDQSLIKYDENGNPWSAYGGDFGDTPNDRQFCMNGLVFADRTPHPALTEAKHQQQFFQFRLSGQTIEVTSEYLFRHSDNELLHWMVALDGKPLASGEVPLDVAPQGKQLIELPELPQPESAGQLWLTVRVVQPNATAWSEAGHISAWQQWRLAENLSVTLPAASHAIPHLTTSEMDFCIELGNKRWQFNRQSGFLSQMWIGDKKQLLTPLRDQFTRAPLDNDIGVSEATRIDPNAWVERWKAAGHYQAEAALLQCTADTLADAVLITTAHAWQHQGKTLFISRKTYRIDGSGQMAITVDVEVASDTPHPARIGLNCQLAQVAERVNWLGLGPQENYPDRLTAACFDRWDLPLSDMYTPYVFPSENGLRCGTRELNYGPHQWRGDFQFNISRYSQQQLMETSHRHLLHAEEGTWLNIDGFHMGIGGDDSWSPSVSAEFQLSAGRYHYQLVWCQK
Sequence of Trypsin (P00761 whole entry): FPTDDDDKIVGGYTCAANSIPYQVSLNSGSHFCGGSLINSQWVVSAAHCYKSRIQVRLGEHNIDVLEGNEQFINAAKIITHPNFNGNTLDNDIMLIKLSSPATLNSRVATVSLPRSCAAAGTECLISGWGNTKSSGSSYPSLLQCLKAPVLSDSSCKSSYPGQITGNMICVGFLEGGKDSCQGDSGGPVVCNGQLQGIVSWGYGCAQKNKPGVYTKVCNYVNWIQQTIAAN

With `O=C(CCC(=O)OCC(=O)c1cccc([N+](=O)[O-])c1)Nc1ccccc1Cl` the EC50 (Beta-galactosidase) was > 40 µM (inactive) and the IC50 [1] was 15 µM (active).
For `CCN(CC)S(=O)(=O)c1ccc(NC(=O)COC(=O)c2ccc(Br)o2)cc1`, the AC50 (Cytochrome P450 1A2) was 316 nM (inconclusive) and the AC50 (Cytochrome P450 3A4) was “inconclusive”.
In the case of `Cc1ccc(N(Cc2cc(O)nc3ccccc23)C(=O)CCl)c(C)c1`, the IC50 (Vero [2]) was > 25 µM (active) and the CC50 (Vero [3]) was 7.95 µM (active).
For `COC(=O)N1CCC2(CC1)CN(c1ccccc1)C2`, the AC50 (Cytochrome P450 3A4) was “inconclusive”.
With `CCN1CCN(Cc2c(O)ccc3c(=O)c(-c4ccccc4OC)coc23)CC1` the AC50 (Trypsin) was 16 µM (active) and the AC50 (CAAX prenyl protease 2) was 5.2 µM (active).
With `O=C(COc1ccccc1)OCC(=O)c1ccc(S(=O)(=O)N2CCCCC2)cc1` the EC50 (Beta-galactosidase) was > 40 µM (inactive) and the IC50 [1] was 16.9 µM (active).
For `COc1cc2c(cc1OC)C(CCc1ccccc1)=NCC2`, the EC50 [4] was > 260 µM (inactive), the AC50 (Trypsin) was 9.41 µM (active) and the AC50 (CAAX prenyl protease 2) was 6.03 µM (active).
